Measured values from PubChem BioAssay AID1919002 (Molecular Pharmacology Branch, DTP, NCI, 2023).
Where “and” joins values, the source holds several entries; their conditions need not be identical. Identical values can stand only once.

Tested on: 743489-274-T-PDC complex spheroid growth
Test: Anticancer human tumor 743489-274-T-PDC patient-derived renal cell carcinoma cell line growth inhibition [AhR]
Conditions: for viability, T/C: stronger effect = lower value
Source text: Multicellular complex tumor spheroid response to aryl hydrocarbon receptor antagonists in combination with a variety of drugs and investigational agents in selected tumor cell lines
The current study was undertaken to assess response to aryl hydrocarbon receptor antagonists in combination with standard-of-care drugs and investigational agents in solid tumor complex spheroid models. Complex spheroids include a stromal component modeled by human endothelial cells (HUVEC) and fibroblasts modeled by human mesenchymal stem cells (MSCs). The concentration ranges selected for each drug and investigational agent were based upon clinically achievable concentrations if the clinical Cmax of the agent was known.
Compounds. The drugs and investigational agents: BAY 2416964 (NSC825713), GNF351 (NSC835774), CH-223191 (NSC835775), CPI-455 (NSC825282), aza-TdCyd (NSC777586), decitabine (NSC127716), belinostat (NSC758774), entinostat (NSC756642), pevonedistat (NSC761192), tazemetostat (NSC777109), talazoparib (NSC765396), olaparib (NSC753686), selinexor (NSC780203), nedisertib (M3814, NSC802822), bortezomib (NSC756655), venetoclax (NSC766270), doxorubicin (NSC123127), elimusertib (BAY189344, NSC800525), ceralasertib (AZD6738, NSC777638), TAK-243 (NSC785004), alisertib (NSC759677), etoposide (NSC141540), topotecan (NSC609699), eribulin (NSC707389), gemcitabine (NSC613327), carboplatin (NSC241240), cisplatin (NSC119875), and SN-38 (NSC673596) were obtained from the National Cancer Institute (NCI) Developmental Therapeutics Program Chemical Repository (32). The FDA-approved anticancer drug set is available from the Developmental Therapeutics Program at https://dtp.cancer.gov/organization/dscb/obtaining/available plates.htm. […] The stock solutions were prepared in dimethyl sulfoxide (DMSO, Sigma-Aldrich, St. Louis, MO, cat. D2650), except for the platinum compounds which were prepared in saline (Quality Biological, Gaithersburg, MD, cat. 114-055-101), at 800-fold the tested concentration and stored at -70 degrees C prior to their use. All drugs and investigational agents were tested over a range starting from a high concentration at or near the clinical Cmax and decreasing in half-log increments. If the clinical Cmax for an agent had not been determined, the highest concentration tested was 10 microM (Table 1).
Cell Culture. All cells were maintained in an incubator at 37 degrees C and 5% CO2 with 95% humidity. The PDC lines were cultured according to standard operating procedures established by the NCI PDMR (https://pdmr.cancer.gov). Briefly, all PDCs were thawed and cultured in Matrigel-coated flasks prepared with a working solution of 1X Ham's F-12 nutrient mix, without supplementation (Invitrogen, Waltham, MA, cat. 11765054), 100 U/mL penicillin-streptomycin (Invitrogen, cat. 15140122), and 2.5% Matrigel (Corning Inc., Corning, NY, cat. 354248) for the first three passages. All PDCs were cultured in complete DMEM/F-12 media containing advanced DMEM/F-12 (Invitrogen, cat. 12634028), 4.9% defined fetal bovine serum, heat inactivated (HyClone Laboratories Inc., Logan, UT, cat. SH30070.03HI), 389 ng/mL hydrocortisone (Sigma-Aldrich, cat. H4001), 9.7 ng/mL human EGF recombinant protein (Invitrogen, cat. PHG0313), 23.4 microg/mL adenine (Sigma-Aldrich, cat. A2786), 97.3 U/mL penicillin-streptomycin (Invitrogen, cat. 15140122), 1.9 mM L-glutamine (Invitrogen, cat. 25030081), and 9.7 microM Y-27632 dihydrochloride (Tocris Bioscience, Bristol, United Kingdom, cat. 1254). The PDCs were cultured in complete DMEM/F12 media without 10 microM Y-27632 dihydrochloride for at least two passages prior to the screen. The established cell lines NCI-H1341 and […] were cultured in DMEM/F-12, HEPES (Invitrogen, cat. 11330032), 5% defined fetal bovine serum (HyClone Laboratories Inc., cat. SH30070.03), ITS premix universal culture supplement [insulin (5 microg/mL), transferrin (5 microg/mL), and selenious acid (5 ng/mL)] […]

[1] = curve of first compound, second compound 0.1 µM
[2] = curve of first compound, second compound 0.316 µM
[3] = curve of first compound, second compound 1 µM
[4] = curve of first compound, second compound 3.16 µM
[5] = curve of first compound, second compound 10 µM
[6] = second compound 0.1 µM, first compound 0.000316 µM
[7] = second compound 0.1 µM, first compound 0.001 µM
[8] = second compound 0.1 µM, first compound 0.00316 µM
[9] = second compound 0.1 µM, first compound 0.01 µM
[10] = second compound 0.1 µM, first compound 0.0316 µM
[11] = second compound 0.1 µM, first compound 0.1 µM
[12] = second compound 0.316 µM, first compound 0.000316 µM
[13] = second compound 0.316 µM, first compound 0.001 µM
[14] = second compound 0.316 µM, first compound 0.00316 µM
[15] = second compound 0.316 µM, first compound 0.01 µM
[16] = second compound 0.316 µM, first compound 0.0316 µM
[17] = second compound 0.316 µM, first compound 0.1 µM
[18] = second compound 1 µM, first compound 0.000316 µM
[19] = second compound 1 µM, first compound 0.001 µM
[20] = second compound 1 µM, first compound 0.00316 µM
[21] = second compound 1 µM, first compound 0.01 µM
[22] = second compound 1 µM, first compound 0.0316 µM
[23] = second compound 1 µM, first compound 0.1 µM
[24] = second compound 3.16 µM, first compound 0.000316 µM
[25] = second compound 3.16 µM, first compound 0.001 µM
[26] = second compound 3.16 µM, first compound 0.00316 µM
[27] = second compound 3.16 µM, first compound 0.01 µM
[28] = second compound 3.16 µM, first compound 0.0316 µM
[29] = second compound 3.16 µM, first compound 0.1 µM
[30] = second compound 10 µM, first compound 0.000316 µM
[31] = second compound 10 µM, first compound 0.001 µM
[32] = second compound 10 µM, first compound 0.00316 µM
[33] = second compound 10 µM, first compound 0.01 µM
[34] = second compound 10 µM, first compound 0.0316 µM
[35] = second compound 10 µM, first compound 0.1 µM
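Also: spheroids exposed to agents for 7 days before readout.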
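For viability, T/C in this document: 100% = DMSO vehicle control wells.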

CC[C@@]1(O)C(=O)OCc2c1cc1n(c2=O)Cc2cc3c(CN(C)C)c(O)ccc3nc2-1 + Cc1ccccc1N=Nc1ccc(NC(=O)c2ccnn2C)c(C)c1
IC50 [1]: > 100 nM | IC50 [2]: > 100 nM | IC50 [3]: > 100 nM | IC50 [4]: > 100 nM | IC50 [5]: > 100 nM | viability, T/C [6]: 98.8% | viability, T/C [7]: 98.7% | viability, T/C [8]: 111% | viability, T/C [9]: 95.8% | viability, T/C [10]: 89.3% | viability, T/C [11]: 80.9% | viability, T/C [12]: 98.2% | viability, T/C [13]: 105% | viability, T/C [14]: 106% | viability, T/C [15]: 96.6% | viability, T/C [16]: 89.3% | viability, T/C [17]: 85.9% | viability, T/C [18]: 89.1% | viability, T/C [19]: 94% | viability, T/C [20]: 92.6% | viability, T/C [21]: 81.1% | viability, T/C [22]: 87% | viability, T/C [23]: 77.4% | viability, T/C [24]: 87.4% | viability, T/C [25]: 81.2% | viability, T/C [26]: 93.3% | viability, T/C [27]: 90.4% | viability, T/C [28]: 90.4% | viability, T/C [29]: 79.9% | viability, T/C [30]: 88.9% | viability, T/C [31]: 80.7% | viability, T/C [32]: 87.4% | viability, T/C [33]: 86.2% | viability, T/C [34]: 80.7% | viability, T/C [35]: 63.5%

COc1ccc([C@@H](O)c2cc(-c3ncnc4cc(N5CCOCC5)ccc34)c(F)cc2Cl)nn1
viability, T/C (compound 0.0316 µM): 107% and 116% and 95% | viability, T/C (compound 0.1 µM): 105% and 102% and 106% | viability, T/C (compound 0.316 µM): 94.2% and 93.8% and 101% | viability, T/C (compound 1 µM): 93.3% and 90.2% and 84.6% | viability, T/C (compound 3.16 µM): 65% and 45.8% and 61.5% | viability, T/C (compound 10 µM): 46.3% and 26% and 26.9% | IC50 (curve of compound): 7940 nM and 3030 nM and 4530 nM

CC[C@@]1(O)C(=O)OCc2c1cc1n(c2=O)Cc2cc3c(CN(C)C)c(O)ccc3nc2-1 + Cc1cncc(-c2nc(NCCc3c[nH]c4ccccc34)c3ncn(C(C)C)c3n2)c1
IC50 [1]: > 100 nM | IC50 [2]: > 100 nM | IC50 [3]: > 100 nM | IC50 [4]: > 100 nM | IC50 [5]: > 100 nM | viability, T/C [6]: 100% | viability, T/C [7]: 108% | viability, T/C [8]: 98.7% | viability, T/C [9]: 94.5% | viability, T/C [10]: 93.1% | viability, T/C [11]: 97.4% | viability, T/C [12]: 105% | viability, T/C [13]: 110% | viability, T/C [14]: 105% | viability, T/C [15]: 98.6% | viability, T/C [16]: 92.8% | viability, T/C [17]: 90.4% | viability, T/C [18]: 101% | viability, T/C [19]: 105% | viability, T/C [20]: 101% | viability, T/C [21]: 89.8% | viability, T/C [22]: 86.5% | viability, T/C [23]: 84.3% | viability, T/C [24]: 113% | viability, T/C [25]: 109% | viability, T/C [26]: 129% | viability, T/C [27]: 101% | viability, T/C [28]: 107% | viability, T/C [29]: 84.7% | viability, T/C [30]: 136% | viability, T/C [31]: 123% | viability, T/C [32]: 133% | viability, T/C [33]: 123% | viability, T/C [34]: 123% | viability, T/C [35]: 114%

CCc1c2c(nc3ccc(O)cc13)-c1cc3c(c(=O)n1C2)COC(=O)[C@]3(O)CC + Cc1cncc(-c2nc(NCCc3c[nH]c4ccccc34)c3ncn(C(C)C)c3n2)c1
IC50 [1]: > 300 nM | IC50 [2]: > 300 nM | IC50 [3]: > 300 nM | IC50 [4]: > 300 nM | IC50 [5]: > 300 nM | viability, T/C (second compound 0.1 µM, first compound 0.000949 µM): 106% | viability, T/C (second compound 0.1 µM, first compound 0.003 µM): 103% | viability, T/C (second compound 0.1 µM, first compound 0.00949 µM): 97.1% | viability, T/C (second compound 0.1 µM, first compound 0.03 µM): 89.1% | viability, T/C (second compound 0.1 µM, first compound 0.0949 µM): 79.4% | viability, T/C (second compound 0.1 µM, first compound 0.3 µM): 76.6% | viability, T/C (second compound 0.316 µM, first compound 0.000949 µM): 98.8% | viability, T/C (second compound 0.316 µM, first compound 0.003 µM): 95% | viability, T/C (second compound 0.316 µM, first compound 0.00949 µM): 98.5% | viability, T/C (second compound 0.316 µM, first compound 0.03 µM): 82.2% | viability, T/C (second compound 0.316 µM, first compound 0.0949 µM): 69.5% | viability, T/C (second compound 0.316 µM, first compound 0.3 µM): 64.6% | viability, T/C (second compound 1 µM, first compound 0.000949 µM): 102% | viability, T/C (second compound 1 µM, first compound 0.003 µM): 106% | viability, T/C (second compound 1 µM, first compound 0.00949 µM): 110% | viability, T/C (second compound 1 µM, first compound 0.03 µM): 79.9% | viability, T/C (second compound 1 µM, first compound 0.0949 µM): 94.8% | viability, T/C (second compound 1 µM, first compound 0.3 µM): 66.6% | viability, T/C (second compound 3.16 µM, first compound 0.000949 µM): 113% | viability, T/C (second compound 3.16 µM, first compound 0.003 µM): 102% | viability, T/C (second compound 3.16 µM, first compound 0.00949 µM): 98.6% | viability, T/C (second compound 3.16 µM, first compound 0.03 µM): 80.7% | viability, T/C (second compound 3.16 µM, first compound 0.0949 µM): 73.1% | viability, T/C (second compound 3.16 µM, first compound 0.3 µM): 73.9% | viability, T/C (second compound 10 µM, first compound 0.000949 µM): 131% | viability, T/C (second compound 10 µM, first compound 0.003 µM): 135% | viability, T/C (second compound 10 µM, first compound 0.00949 µM): 128% | viability, T/C (second compound 10 µM, first compound 0.03 µM): 102% | viability, T/C (second compound 10 µM, first compound 0.0949 µM): 95% | viability, T/C (second compound 10 µM, first compound 0.3 µM): 68.4%

CC(C)CC(NC(=O)C(Cc1ccccc1)NC(=O)c1cnccn1)B(O)O (centres undefined)
viability, T/C (compound 0.000949 µM): 99.1% and 101% and 98% | viability, T/C (compound 0.003 µM): 95.6% and 109% and 101% | viability, T/C (compound 0.00949 µM): 106% and 110% and 101% | viability, T/C (compound 0.03 µM): 82.7% and 39.1% and 17.3% | viability, T/C (compound 0.0949 µM): 12.9% and 18.7% and 11.8% | viability, T/C (compound 0.3 µM): 11.7% and 8.88% and 4.65% | IC50 (curve of compound): 51.3 nM and 24.9 nM and 19 nM
